Experimental data from ChEMBL document CHEMBL1201862, “PubChem BioAssay data set” (2004).
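Method: 48-hour compound exposure of cells in 96-well plates, five concentrations, linear interpolation of endpoints. GI50 is the concentration that inhibits growth by half.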 Calls of active or inactive are those of the source. No stated cut-off is given here; in the data, active = GI50 up to about 1.1 µM and inactive = higher.

How the values were obtained:
Assay in all cases: NCI anticancer screen, dose series, 48 h
[1] = system: 786-0
[2] = system: A498
[3] = system: A549
[4] = system: ACHN
[5] = system: BT-549
[6] = system: CAKI-1
[7] = system: CCRF-CEM
[8] = system: COLO 205
[9] = system: DU-145
[10] = system: EKVX
[11] = system: HCC 2998
[12] = system: HCT-116
[13] = system: HCT-15
[14] = system: HOP-62
[15] = system: HOP-92
[16] = system: HT-29
[17] = system: Hs-578T
[18] = system: IGROV-1
[19] = system: K562
[20] = system: KM12
[21] = system: LOX IMVI
[22] = system: M14
[23] = system: MCF7
[24] = system: MDA-MB-231
[25] = system: MDA-MB-435
[26] = system: MDA-N
[27] = system: MOLT-4
[28] = system: Malme-3M
[29] = system: NCI-H226
[30] = system: NCI-H23
[31] = system: NCI-H460
[32] = system: NCI-H522
[33] = system: NCI/ADR-RES
[34] = system: OVCAR-3
[35] = system: OVCAR-4
[36] = system: OVCAR-5
[37] = system: OVCAR-8
[38] = system: PC-3
[39] = system: RPMI-8226
[40] = system: RXF 393
[41] = system: SF-268
[42] = system: SF-295
[43] = system: SF-539
[44] = system: SK-MEL-28
[45] = system: SK-MEL-2
[46] = system: SK-MEL-5
[47] = system: SK-OV-3
[48] = system: SN12C
[49] = system: SNB-19
[50] = system: SR
[51] = system: SW-620
[52] = system: T47D
[53] = system: TK-10
[54] = system: U-251
[55] = system: UACC-257
[56] = system: UACC-62
[57] = system: UO-31
[58] = system: SNB-75

Compound: c1ccc2c[n+](Cc3ccnc4ccccc34)ccc2c1
- GI50 [1]: > 100 µM (inactive)
- GI50 [2]: > 100 µM (inactive)
- GI50 [3]: > 100 µM (inactive)
- GI50 [4]: > 100 µM (inactive)
- GI50 [5]: > 100 µM (inactive)
- GI50 [6]: > 100 µM (inactive)
- GI50 [7]: > 100 µM (inactive)
- GI50 [8]: 67.1 µM (inactive)
- GI50 [9]: > 100 µM (inactive)
- GI50 [10]: 71 µM (inactive)
- GI50 [11]: > 100 µM (inactive)
- GI50 [12]: > 100 µM (inactive)
- GI50 [13]: > 100 µM
- GI50 [14]: > 100 µM (inactive)
- GI50 [15]: 97.7 µM (inactive)
- GI50 [16]: 51.8 µM (inactive)
- GI50 [17]: > 100 µM (inactive)
- GI50 [18]: > 100 µM (inactive)
- GI50 [19]: > 100 µM (inactive)
- GI50 [20]: > 100 µM (inactive)
- GI50 [21]: > 100 µM (inactive)
- GI50 [22]: > 100 µM (inactive)
- GI50 [23]: > 100 µM (inactive)
- GI50 [24]: > 100 µM (inactive)
- GI50 [25]: > 100 µM (inactive)
- GI50 [26]: > 100 µM (inactive)
- GI50 [27]: > 100 µM (inactive)
- GI50 [28]: > 100 µM (inactive)
- GI50 [29]: 41.8 µM (inactive)
- GI50 [30]: > 100 µM (inactive)
- GI50 [31]: > 100 µM (inactive)
- GI50 [32]: > 100 µM (inactive)
- GI50 [33]: > 100 µM (inactive)
- GI50 [34]: 67 µM (inactive)
- GI50 [35]: > 100 µM (inactive)
- GI50 [36]: > 100 µM (inactive)
- GI50 [37]: > 100 µM (inactive)
- GI50 [38]: > 100 µM (inactive)
- GI50 [39]: > 100 µM (inactive)
- GI50 [40]: > 100 µM (inactive)
- GI50 [41]: > 100 µM (inactive)
- GI50 [42]: > 100 µM (inactive)
- GI50 [43]: > 100 µM (inactive)
- GI50 [44]: > 100 µM (inactive)
- GI50 [45]: > 100 µM (inactive)
- GI50 [46]: 42.8 µM (inactive)
- GI50 [47]: > 100 µM (inactive)
- GI50 [48]: > 100 µM (inactive)
- GI50 [49]: > 100 µM (inactive)
- GI50 [50]: > 100 µM (inactive)
- GI50 [51]: > 100 µM (inactive)
- GI50 [52]: > 100 µM (inactive)
- GI50 [53]: > 100 µM (inactive)
- GI50 [54]: > 100 µM (inactive)
- GI50 [55]: > 100 µM (inactive)
- GI50 [56]: > 100 µM (inactive)
- GI50 [57]: > 100 µM (inactive)

Compound: COc1cc(C)c(S(=O)(=O)N(CCCN)OCCCN)c(C)c1C
- GI50 [1]: 45.6 µM (inactive)
- GI50 [2]: 39.4 µM (inactive)
- GI50 [3]: 68.5 µM (inactive)
- GI50 [4]: 49.4 µM (inactive)
- GI50 [5]: 26.6 µM (inactive)
- GI50 [6]: > 100 µM (inactive)
- GI50 [7]: 41.2 µM (inactive)
- GI50 [8]: 21 µM (inactive)
- GI50 [9]: 33.7 µM (inactive)
- GI50 [10]: 31.8 µM (inactive)
- GI50 [11]: 16.6 µM (inactive)
- GI50 [12]: 29.6 µM (inactive)
- GI50 [13]: > 100 µM
- GI50 [14]: 61.7 µM (inactive)
- GI50 [16]: 46.5 µM (inactive)
- GI50 [17]: 23 µM (inactive)
- GI50 [18]: 20.2 µM (inactive)
- GI50 [19]: 15.6 µM (inactive)
- GI50 [20]: 40.8 µM (inactive)
- GI50 [21]: 27.8 µM (inactive)
- GI50 [22]: 23.6 µM (inactive)
- GI50 [23]: 19.4 µM (inactive)
- GI50 [24]: 25.5 µM (inactive)
- GI50 [25]: 38.9 µM (inactive)
- GI50 [26]: 36.9 µM (inactive)
- GI50 [27]: 13 µM (inactive)
- GI50 [28]: 21.9 µM (inactive)
- GI50 [29]: > 100 µM (inactive)
- GI50 [30]: 31.1 µM (inactive)
- GI50 [31]: 47.1 µM (inactive)
- GI50 [32]: 22 µM (inactive)
- GI50 [33]: > 100 µM (inactive)
- GI50 [34]: 61.9 µM (inactive)
- GI50 [35]: > 100 µM (inactive)
- GI50 [36]: 85.5 µM (inactive)
- GI50 [37]: 38.5 µM (inactive)
- GI50 [38]: 25.4 µM (inactive)
- GI50 [39]: 17.5 µM (inactive)
- GI50 [40]: 15.6 µM (inactive)
- GI50 [41]: 36.7 µM (inactive)
- GI50 [42]: 31.3 µM (inactive)
- GI50 [44]: 38.9 µM (inactive)
- GI50 [45]: 22.2 µM (inactive)
- GI50 [46]: 20.8 µM (inactive)
- GI50 [47]: > 100 µM (inactive)
- GI50 [48]: 57 µM (inactive)
- GI50 [49]: 42 µM (inactive)
- GI50 [58]: 34.2 µM (inactive)
- GI50 [50]: 17.6 µM (inactive)
- GI50 [51]: 46.1 µM (inactive)
- GI50 [52]: 29.8 µM (inactive)
- GI50 [53]: 34 µM (inactive)
- GI50 [54]: 29.9 µM (inactive)
- GI50 [55]: 21.4 µM (inactive)
- GI50 [56]: 48.1 µM (inactive)
- GI50 [57]: 41.5 µM (inactive)
